Measurements taken from US20240376121A1, “COMPOUNDS AND USES THEREOF” (Foghorn Therapeutics Inc., priority 2021, published 2024).

Columns and labels:
[1] = molecular target: T1, HiBit-BRG1 fusion protein (Homo sapiens, UniProt P51532); assay: HiBiT-BRG1 cell-based degradation assay (Nano-Glo HiBiT Lytic Detection); details: stable HeLa cell line expressing HiBit-BRG1 and LgBit, 24 h incubation; for Dmax: top dose 30 μM, read-out: BRG1 HiBit Degradation Maximum (%); for DC50: read-out: BRMG1 HiBit Degradation IC50
T1 construct: expressed in transfected cells
In short: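 HeLa cells stably expressing HiBiT-BRG1 and LgBiT treated 24 h with 10-point 3-fold dilutions (top 30 μM, duplicate). Luminescence read after Nano-Glo HiBiT lytic reagent; % degradation relative to DMSO (high control) and 2 μM reference BRM/BRG1 degrader (low control).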

HiBit-BRM fusion protein = molecular target: T2, HiBit-BRM fusion protein (Homo sapiens, UniProt P51531); assay: HiBiT-BRM cell-based degradation assay (Nano-Glo HiBiT Lytic Detection); details: stable HeLa cell line expressing HiBiT-BRM, 24 h incubation; for BRM HiBit Degradation Maximum (%): top dose 30 μM; for DC50: read-out: BRM HiBit Degradation IC50
T2 construct: expressed in transfected cells
In short: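 Luminescence from reconstituted NanoBiT luciferase in lysed HeLa HiBiT-BRM cells served as the measure of remaining BRM after 24 h treatment. Compounds were tested from 30 μM final downward in 3-fold steps. DMSO and 2 μM of a standard BRM/BRG1 degrader defined the scale limits.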

T1 sequence (P51532 whole entry, the tested form may be a part): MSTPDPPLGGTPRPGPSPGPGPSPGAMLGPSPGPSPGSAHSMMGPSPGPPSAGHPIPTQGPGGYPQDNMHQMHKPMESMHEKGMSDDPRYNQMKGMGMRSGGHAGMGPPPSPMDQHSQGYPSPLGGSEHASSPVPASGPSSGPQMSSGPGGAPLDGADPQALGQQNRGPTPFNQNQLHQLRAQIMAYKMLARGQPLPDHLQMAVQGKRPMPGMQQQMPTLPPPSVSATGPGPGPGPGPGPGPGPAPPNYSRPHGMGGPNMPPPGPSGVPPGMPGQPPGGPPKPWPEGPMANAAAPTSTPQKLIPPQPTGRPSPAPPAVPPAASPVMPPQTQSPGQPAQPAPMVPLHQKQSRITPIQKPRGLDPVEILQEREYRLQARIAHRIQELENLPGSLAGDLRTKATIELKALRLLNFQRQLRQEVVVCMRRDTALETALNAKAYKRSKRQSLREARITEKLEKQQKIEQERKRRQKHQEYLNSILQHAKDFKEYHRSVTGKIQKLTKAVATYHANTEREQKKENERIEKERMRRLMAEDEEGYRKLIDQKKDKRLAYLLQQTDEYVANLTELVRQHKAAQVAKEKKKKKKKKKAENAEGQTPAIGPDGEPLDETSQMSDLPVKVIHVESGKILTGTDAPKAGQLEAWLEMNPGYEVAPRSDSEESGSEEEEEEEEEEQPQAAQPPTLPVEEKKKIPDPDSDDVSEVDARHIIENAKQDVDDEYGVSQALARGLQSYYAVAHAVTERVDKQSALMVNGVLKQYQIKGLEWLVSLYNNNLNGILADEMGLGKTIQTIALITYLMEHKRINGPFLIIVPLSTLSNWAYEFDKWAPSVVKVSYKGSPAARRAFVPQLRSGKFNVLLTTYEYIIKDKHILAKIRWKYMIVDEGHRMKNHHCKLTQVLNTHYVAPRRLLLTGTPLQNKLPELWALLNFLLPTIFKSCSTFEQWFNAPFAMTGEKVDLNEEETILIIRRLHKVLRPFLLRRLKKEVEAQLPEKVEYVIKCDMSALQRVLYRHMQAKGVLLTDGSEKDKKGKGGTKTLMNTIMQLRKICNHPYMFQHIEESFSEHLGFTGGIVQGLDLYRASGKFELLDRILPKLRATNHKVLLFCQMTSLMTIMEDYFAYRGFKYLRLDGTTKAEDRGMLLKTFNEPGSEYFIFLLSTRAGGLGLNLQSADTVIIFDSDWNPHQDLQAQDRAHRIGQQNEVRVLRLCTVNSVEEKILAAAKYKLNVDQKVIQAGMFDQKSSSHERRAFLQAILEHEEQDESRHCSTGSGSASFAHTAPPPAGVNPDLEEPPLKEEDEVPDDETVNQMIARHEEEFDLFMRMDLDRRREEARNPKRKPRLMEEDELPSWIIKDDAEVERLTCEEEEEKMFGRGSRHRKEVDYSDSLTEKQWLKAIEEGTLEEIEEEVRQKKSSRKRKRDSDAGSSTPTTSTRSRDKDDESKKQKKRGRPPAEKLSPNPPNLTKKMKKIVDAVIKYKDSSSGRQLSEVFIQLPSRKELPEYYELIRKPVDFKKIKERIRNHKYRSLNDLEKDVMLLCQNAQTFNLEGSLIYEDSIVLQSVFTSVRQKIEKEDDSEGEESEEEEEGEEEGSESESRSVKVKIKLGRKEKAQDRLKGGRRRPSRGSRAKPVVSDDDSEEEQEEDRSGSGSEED
T2 sequence (P51531 whole entry, the tested form may be a part): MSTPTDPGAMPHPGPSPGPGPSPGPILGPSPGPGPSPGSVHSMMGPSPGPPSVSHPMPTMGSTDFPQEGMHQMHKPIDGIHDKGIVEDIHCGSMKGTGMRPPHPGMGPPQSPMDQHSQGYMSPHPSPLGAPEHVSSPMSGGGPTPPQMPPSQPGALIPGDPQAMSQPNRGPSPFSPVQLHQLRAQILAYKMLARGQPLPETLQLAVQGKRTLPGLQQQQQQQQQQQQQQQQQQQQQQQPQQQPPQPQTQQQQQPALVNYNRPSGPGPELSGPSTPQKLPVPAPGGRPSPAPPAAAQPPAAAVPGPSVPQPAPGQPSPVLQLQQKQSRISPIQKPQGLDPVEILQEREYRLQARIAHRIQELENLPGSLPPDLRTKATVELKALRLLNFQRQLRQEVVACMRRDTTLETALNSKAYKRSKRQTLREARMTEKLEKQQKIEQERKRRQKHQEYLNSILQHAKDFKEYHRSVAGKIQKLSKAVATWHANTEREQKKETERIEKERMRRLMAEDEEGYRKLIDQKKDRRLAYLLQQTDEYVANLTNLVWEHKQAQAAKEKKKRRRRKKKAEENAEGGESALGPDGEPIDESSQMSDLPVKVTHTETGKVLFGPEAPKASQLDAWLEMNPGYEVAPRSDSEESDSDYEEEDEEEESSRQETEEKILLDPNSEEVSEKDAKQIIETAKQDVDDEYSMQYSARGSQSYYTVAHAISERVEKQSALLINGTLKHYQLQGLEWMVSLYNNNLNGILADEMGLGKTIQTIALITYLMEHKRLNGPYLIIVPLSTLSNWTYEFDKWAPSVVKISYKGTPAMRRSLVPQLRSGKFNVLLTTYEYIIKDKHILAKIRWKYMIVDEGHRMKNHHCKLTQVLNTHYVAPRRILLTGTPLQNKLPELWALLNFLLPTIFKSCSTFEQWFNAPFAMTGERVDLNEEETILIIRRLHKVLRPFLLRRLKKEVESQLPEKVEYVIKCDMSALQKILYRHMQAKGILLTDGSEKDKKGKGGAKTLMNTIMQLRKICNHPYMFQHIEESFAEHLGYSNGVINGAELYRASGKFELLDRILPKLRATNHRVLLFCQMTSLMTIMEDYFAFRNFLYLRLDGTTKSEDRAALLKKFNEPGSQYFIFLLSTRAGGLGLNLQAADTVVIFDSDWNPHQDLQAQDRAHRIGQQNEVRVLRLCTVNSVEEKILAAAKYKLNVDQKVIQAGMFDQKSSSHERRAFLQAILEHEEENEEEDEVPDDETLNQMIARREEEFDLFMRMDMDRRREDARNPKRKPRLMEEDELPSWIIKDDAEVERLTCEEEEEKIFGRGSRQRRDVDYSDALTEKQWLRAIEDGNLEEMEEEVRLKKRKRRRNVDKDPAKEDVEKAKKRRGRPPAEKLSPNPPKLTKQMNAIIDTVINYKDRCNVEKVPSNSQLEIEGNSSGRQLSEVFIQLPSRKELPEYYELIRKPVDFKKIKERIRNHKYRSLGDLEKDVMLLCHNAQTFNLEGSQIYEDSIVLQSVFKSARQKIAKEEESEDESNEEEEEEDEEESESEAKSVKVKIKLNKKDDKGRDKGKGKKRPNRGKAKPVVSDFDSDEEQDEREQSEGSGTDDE

Row | Dmax [1] [%] | DC50 [1] [nM] | DC50 (HiBit-BRM fusion protein) [nM] | Compound | BRM HiBit Degradation Maximum (%) (HiBit-BRM fusion protein)
1 | < 50 | ≥ 1000 | ≥ 10 | Cc1ncsc1-c1ccc([C@H](C)NC(=O)[C@@H]2C[C@@H](O)CN2C(=O)[C@@H](c2cc(N3CCC(C(=O)N4CC(c5cc6cc(-c7ccccc7O)nnc6s5)C4)CC3)no2)C(C)C)cc1 [Compound 5, (2S,4R)-4-hydroxy-1-((R)-2-(3-(4-(3-(3-(2-hydroxyphenyl)thieno[2,3-c]pyridazin-6-yl)azetidine-1-carbonyl)piperidin-1-yl)isoxazol-5-yl)-3-methylbutanoyl)-N—((S)-1-(4-(4-methylthiazol-5-yl)phenyl)ethyl)pyrrolidine-2-carboxamide] | A (“A” indicates maximum degradation ≥ 75%)
2 | < 50 | ≥ 1000 | < 10 | Cc1ncsc1-c1ccc([C@H](C)NC(=O)[C@@H]2C[C@@H](O)CN2C(=O)[C@@H](c2cc(OCCN3CCC(c4cc5nnc(-c6ccccc6O)cc5s4)CC3)no2)C(C)C)cc1 [Compound 97, (2S,4R)-4-hydroxy-1-((R)-2-(3-(2-(4-(3-(2-hydroxyphenyl)thieno[3,2-c]pyridazin-6-yl)piperidin-1-yl)ethoxy)isoxazol-5-yl)-3-methylbutanoyl)-N-((S)-1-(4-(4-methylthiazol-5-yl)phenyl)ethyl)pyrrolidine-2-carboxamide] | A (“A” indicates maximum degradation ≥ 75%)
3 | < 50 | ≥ 1000 | ≥ 1000 | Cc1ncsc1-c1ccc([C@H](C)NC(=O)[C@@H]2C[C@@H](O)CN2C(=O)[C@@H](c2cc(OCCN3CC(c4c(C)sc5nnc(-c6ccccc6O)cc45)C3)no2)C(C)C)cc1 [Compound 14] | C (“C” indicates maximum degradation < 50%)
4 | < 50 | ≥ 1000 | ≥ 1000 | Cc1ncsc1-c1ccc([C@H](C)NC(=O)[C@@H]2C[C@@H](O)CN2C(=O)[C@H](c2cc(N3CCC(C(=O)N4CC(c5cc6cc(-c7ccccc7O)nnc6s5)C4)CC3)no2)C(C)C)cc1 [Compound 4, (2S,4R)-4-hydroxy-1-((S)-2-(3-(4-(3-(3-(2-hydroxyphenyl)thieno[2,3-c]pyridazin-6-yl)azetidine-1-carbonyl)piperidin-1-yl)isoxazol-5-yl)-3-methylbutanoyl)-N—((S)-1-(4-(4-methylthiazol-5-yl)phenyl)ethyl)pyrrolidine-2-carboxamide] | C (“C” indicates maximum degradation < 50%)
5 | < 50 | ≥ 1000 | ≥ 1000 | Cc1ncsc1-c1ccc([C@H](C)NC(=O)[C@@H]2C[C@@H](O)CN2C(=O)[C@@H](c2cc(OCCN3CC(Cc4c(C)sc5nnc(-c6ccccc6O)cc45)C3)no2)C(C)C)cc1 [Compound 110, (2S,4R)-4-hydroxy-1-((R)-2-(3-(2-(3-((3-(2-hydroxyphenyl)-6-methylthieno[2,3-c]pyridazin-5-yl)methyl)azetidin-1-yl)ethoxy)isoxazol-5-yl)-3-methylbutanoyl)-N-((S)-1-(4-(4-methylthiazol-5-yl)phenyl)ethyl)pyrrolidine-2-carboxamide] | B (“B” indicates maximum degradation ≥ 50%)
6 | < 50 | ≥ 1000 | < 10 | Cc1ncsc1-c1ccc([C@H](C)NC(=O)[C@@H]2C[C@@H](O)CN2C(=O)[C@@H](c2cc(N3CCC(N4CCC(c5sc6nnc(-c7ccccc7O)cc6c5C)CC4)CC3)no2)C(C)C)cc1 [Compound 96, (2S,4R)-4-hydroxy-1-((R)-2-(3-(4-(3-(2-hydroxyphenyl)-5-methylthieno[2,3-c]pyridazin-6-yl)-[1,4'-bipiperidin]-1'-yl)isoxazol-5-yl)-3-methylbutanoyl)-N-((S)-1-(4-(4-methylthiazol-5-yl)phenyl)ethyl)pyrrolidine-2-carboxamide] | A (“A” indicates maximum degradation ≥ 75%)
7 | < 50 | ≥ 1000 | ≥ 10 | Cc1ncsc1-c1ccc([C@H](C)NC(=O)[C@@H]2C[C@@H](O)CN2C(=O)[C@@H](c2cc(OCCN3CCC(c4cc5cc(-c6ccccc6O)nnc5s4)CC3)no2)C(C)C)cc1 [Compound 2, (2S,4R)-4-hydroxy-1-((R)-2-(3-(2-(4-(3-(2-hydroxyphenyl)thieno[2,3-c]pyridazin-6-yl)piperidin-1-yl)ethoxy)isoxazol-5-yl)-3-methylbutanoyl)-N—((S)-1-(4-(4-methylthiazol-5-yl)phenyl)ethyl)pyrrolidine-2-carboxamide] | A (“A” indicates maximum degradation ≥ 75%)
8 | < 50 | ≥ 1000 | ≥ 1000 | Cc1ncsc1-c1ccc([C@H](C)NC(=O)[C@@H]2C[C@@H](O)CN2C(=O)[C@@H](c2cc(OCCN[C@@H]3CCc4sc5nnc(-c6ccccc6O)cc5c4C3)no2)C(C)C)cc1 [Compound 40, (2S,4R)-4-hydroxy-1-((R)-2-(3-(2-(((R)-3-(2-hydroxyphenyl)-5,6,7,8-tetrahydrobenzo[4,5]thieno[2,3-c]pyridazin-6-yl)amino)ethoxy)isoxazol-5-yl)-3-methylbutanoyl)-N—((S)-1-(4-(4-methylthiazol-5-yl)phenyl)ethyl)pyrrolidine-2-carboxamide] | C (“C” indicates maximum degradation < 50%)

Further lines, the molecule ahead of its results:

Row | Compound | Dmax [1] [%] | DC50 [1] [nM] | DC50 (HiBit-BRM fusion protein) [nM] | BRM HiBit Degradation Maximum (%) (HiBit-BRM fusion protein)
9 | Cc1ncsc1-c1ccc([C@H](C)NC(=O)[C@@H]2C[C@@H](O)CN2C(=O)[C@@H](c2cc(OCCN3CCC(O)(c4sc5nnc(-c6ccccc6O)cc5c4C)CC3)no2)C(C)C)cc1 [Compound 54, (2S,4R)-4-hydroxy-1-((R)-2-(3-(2-(4-hydroxy-4-(3-(2-hydroxyphenyl)-5-methylthieno[2,3-c]pyridazin-6-yl)piperidin-1-yl)ethoxy)isoxazol-5-yl)-3-methylbutanoyl)-N-((S)-1-(4-(4-methylthiazol-5-yl)phenyl)ethyl)pyrrolidine-2-carboxamide] | < 50 | ≥ 1000 | ≥ 10 | A (“A” indicates maximum degradation ≥ 75%)
10 | Cc1ncsc1-c1ccc(CNC(=O)[C@@H]2C[C@@H](O)CN2C(=O)[C@@H](NC(=O)CCCCC(=O)N2CC(c3sc4nnc(-c5ccccc5O)cc4c3C)C2)C(C)(C)C)cc1 [Compound 18] | < 50 | ≥ 1000 | ≥ 1000 | C (“C” indicates maximum degradation < 50%)
11 | Cc1cc([C@H](C(=O)N2C[C@H](O)C[C@H]2C(=O)NCc2ccc(-c3scnc3C)cc2OCCCN2CCC(c3sc4nnc(-c5ccccc5O)cc4c3C)CC2)C(C)C)on1 [Compound 57, (2S,4R)-4-hydroxy-N-(2-(3-(4-(3-(2-hydroxyphenyl)-5-methylthieno[2,3-c]pyridazin-6-yl)piperidin-1-yl)propoxy)-4-(4-methylthiazol-5-yl)benzyl)-1-((R)-3-methyl-2-(3-methylisoxazol-5-yl)butanoyl)pyrrolidine-2-carboxamide] | < 50 | ≥ 1000 | ≥ 10 | B (“B” indicates maximum degradation ≥ 50%)
12 | Cc1ncsc1-c1ccc(CNC(=O)[C@@H]2C[C@@H](O)CN2C(=O)[C@@H](NC(=O)CCCCC(=O)N2CCC(c3cc4cc(-c5ccccc5O)nnc4s3)CC2)C(C)(C)C)cc1 [Compound 29] | < 50 | ≥ 1000 | ≥ 1000 | C (“C” indicates maximum degradation < 50%)
13 | Cc1ncsc1-c1ccc([C@H](C)NC(=O)[C@@H]2C[C@@H](O)CN2C(=O)[C@@H](c2cc(OCCN3CC(c4cc5cc(-c6ccccc6O)nnc5s4)C3)no2)C(C)C)cc1 [Compound 1, (2S,4R)-4-hydroxy-1-((R)-2-(3-(2-(3-(3-(2-hydroxyphenyl)thieno[2,3-c]pyridazin-6-yl)azetidin-1-yl)ethoxy)isoxazol-5-yl)-3-methylbutanoyl)-N—((S)-1-(4-(4-methylthiazol-5-yl)phenyl)ethyl)pyrrolidine-2-carboxamide] | < 50 | ≥ 1000 | ≥ 10 | B (“B” indicates maximum degradation ≥ 50%)
14 | Cc1ncsc1-c1ccc(CNC(=O)[C@@H]2C[C@@H](O)CN2C(=O)[C@@H](NC(=O)CCCC(=O)N2CC(c3sc4nnc(-c5ccccc5O)cc4c3C)C2)C(C)(C)C)cc1 [Compound 19] | ≥ 75 | ≥ 1000 | ≥ 1000 | A (“A” indicates maximum degradation ≥ 75%)
15 | Cc1ncsc1-c1ccc(CNC(=O)[C@@H]2C[C@@H](O)CN2C(=O)[C@@H](NC(=O)C2(F)CC2)C(C)(C)C)c(OCCCN2CCC(c3sc4nnc(-c5ccccc5O)cc4c3C)CC2)c1 [Compound 81, (2S,4R)-1-((S)-2-(1-fluorocyclopropane-1-carboxamido)-3,3-dimethylbutanoyl)-4-hydroxy-N-(2-(3-(4-(3-(2-hydroxyphenyl)-5-methylthieno[2,3-c]pyridazin-6-yl)piperidin-1-yl)propoxy)-4-(4-methylthiazol-5-yl)benzyl)pyrrolidine-2-carboxamide] | < 50 | ≥ 10 | ≥ 10 | B (“B” indicates maximum degradation ≥ 50%)
